Laboratory results taken from patent US20110124877A1, “5-BENZYL-4-AZOLYLMETHYL-4-SPIRO[2.4]HEPTANOL DERIVATIVES, METHODS FOR PRODUCING THE SAME, AND AGRO-HORTICULTURAL AGENTS AND INDUSTRIAL MATERIAL PROTECTING AGENTS THEREOF” (KUREHA CORPORATION, priority 2008, published 2011).

Assays:
[1] = tested on: wheat pink snow mold microorganism (Microdochium nivale); test: Antimicroorganism effect, mycelial extension on PDA plate; assay type: cell-based; conditions: PDA plate medium, 50 mg/l, 1 to 3 days, read-out: growth inhibition grade
[2] = tested on: ricesheath blight microorganism (Rhizoctonia solani); test: as above; assay type: cell-based; conditions: PDA plate medium, 50 mg/l, 1 to 3 days, read-out: growth inhibition grade
[3] = tested on: Curvularia microorganism (Curvularia sp.); test: as above; assay type: cell-based; conditions: PDA plate medium, 50 mg/l, 1 to 3 days, read-out: growth inhibition grade
[4] = tested on: apple alternaria blotch microorganism (Alternaria alternata); test: as above; assay type: cell-based; conditions: PDA plate medium, 50 mg/l, 1 to 3 days, read-out: growth inhibition grade
[5] = tested on: Tricoderma microorganism (Trichoderma sp.); test: as above; assay type: cell-based; conditions: PDA plate medium, 50 mg/l, 1 to 3 days, read-out: growth inhibition grade
[6] = tested on: wood denaturing microorganism (Coriolus versicolor); test: as above; assay type: cell-based; conditions: Trametes versicolor, PDA plate medium, 50 mg/l, 1 to 3 days, read-out: growth inhibition grade
[7] = tested on: wheat take-all microorganism (Gaeumannomyces graminis); test: as above; assay type: cell-based; conditions: PDA plate medium, 50 mg/l, 1 to 3 days, read-out: growth inhibition grade
[8] = tested on: Cladosporium microorganism (Cladosporium sp.); test: as above; assay type: cell-based; conditions: PDA plate medium, 50 mg/l, 1 to 3 days, read-out: growth inhibition grade
[9] = tested on: sclerotinia rot microorganism (Sclerotinia sclerotiorum); test: as above; assay type: cell-based; conditions: PDA plate medium, 50 mg/l, 1 to 3 days, read-out: growth inhibition grade
[10] = tested on: sugar beet cercospora leaf spot microorganism (Cercospora beticola); test: as above; assay type: cell-based; conditions: PDA plate medium, 50 mg/l, 1 to 3 days, read-out: growth inhibition grade
[11] = tested on: wheat stagonospora blotch microorganism (Phaeosphaeria nodorum); test: as above; assay type: cell-based; conditions: Parastagonospora nodorum, PDA plate medium, 50 mg/l, 1 to 3 days, read-out: growth inhibition grade
[12] = tested on: cucumber fusarium wilt microorganism (Fusarium oxysporum); test: as above; assay type: cell-based; conditions: PDA plate medium, 50 mg/l, 1 to 3 days, read-out: growth inhibition grade
[13] = tested on: barley stripe microorganism (Pyrenophora graminea); test: as above; assay type: cell-based; conditions: PDA plate medium, 50 mg/l, 1 to 3 days, read-out: growth inhibition grade
[14] = tested on: wheat eye spot microorganism (Pseudocercosporella herpotrichoides); test: as above; assay type: cell-based; conditions: Oculimacula yallundae, PDA plate medium, 50 mg/l, 1 to 3 days, read-out: growth inhibition grade
[15] = tested on: barley scald microorganism (Rhynchosporium secalis); test: as above; assay type: cell-based; conditions: PDA plate medium, 50 mg/l, 1 to 3 days, read-out: growth inhibition grade
[16] = tested on: rice blast microorganism (Pyricularia oryzae); test: microbe, parasite or virus in culture; assay type: cell-based; conditions: read-out: growth inhibition grade
[17] = tested on: gray mold microorganism (Botritis cinerea); test: Antimicroorganism effect, mycelial extension on PDA plate; assay type: cell-based; conditions: PDA plate medium, 50 mg/l, 1 to 3 days, read-out: growth inhibition grade
[18] = tested on: rice bakanae disease microorganism (Giberella fujikuroi); test: as above; assay type: cell-based; conditions: PDA plate medium, 50 mg/l, 1 to 3 days, read-out: growth inhibition grade
[19] = tested on: barley loose smut microorganism (Ustilago nuda); test: as above; assay type: cell-based; conditions: PDA plate medium, 50 mg/l, 1 to 3 days, read-out: growth inhibition grade
[20] = tested on: wheat septoria bloth microorganism (Septoria tritici); test: as above; assay type: cell-based; conditions: Zymoseptoria tritici, PDA plate medium, 50 mg/l, 1 to 3 days, read-out: growth inhibition grade
[21] = tested on: wheat fusarium blight microorganism (Fusarium graminearum); test: microbe, parasite or virus in culture; assay type: cell-based; conditions: read-out: growth inhibition grade
[22] = tested on: rice seedling blight microorganism (Rhizopus) (Rhizopus oryzae); test: Antimicroorganism effect, mycelial extension on PDA plate; assay type: cell-based; conditions: Rhizopus arrhizus, PDA plate medium, 50 mg/l, 1 to 3 days, read-out: growth inhibition grade
[23] = tested on: cucumber gray mold microorganism; test: Cucumber gray mold preventing effect assay; assay type: in vivo, Botrytis cinerea; conditions: analogous assay at 25 mg/l
Procedure: The sprayed leaves were air-dried, and loaded with a paper disc (8 mm in diameter) soaked with a spore suspension of a cucumber gray mold microorganism, and kept at 20 degrees C. and a high humidity. 4 Days after inoculation, the cucumber gray mold severity was investigated, and the protective value was calculated by the following equation. [table]

[24] = tested on: Mucor microorganism (Mucor sp.); test: Antimicroorganism effect, mycelial extension on PDA plate; assay type: cell-based; conditions: PDA plate medium, 50 mg/l, 1 to 3 days, read-out: growth inhibition grade
[25] = tested on: Aspergillus microorganism (Aspergillus sp.); test: as above; assay type: cell-based; conditions: PDA plate medium, 50 mg/l, 1 to 3 days, read-out: growth inhibition grade
[26] = tested on: Aureobasidium microorganism (Aureobasidium sp.); test: as above; assay type: cell-based; conditions: PDA plate medium, 50 mg/l, 1 to 3 days, read-out: growth inhibition grade
[27] = tested on: penicillium microorganism (Penicillium sp.); test: as above; assay type: cell-based; conditions: PDA plate medium, 50 mg/l, 1 to 3 days, read-out: growth inhibition grade
[28] = tested on: wood denaturing microorganism (Tyromyces palustris); test: as above; assay type: cell-based; conditions: PDA plate medium, 50 mg/l, 1 to 3 days, read-out: growth inhibition grade
[29] = tested on: citrous blue mold microorganism (Penicillium italicum); test: as above; assay type: cell-based; conditions: PDA plate medium, 50 mg/l, 1 to 3 days, read-out: growth inhibition grade
[30] = tested on: anthracnose microorganism (Glomerella cingulata); test: as above; assay type: cell-based; conditions: Colletotrichum gloeosporioides, PDA plate medium, 50 mg/l, 1 to 3 days, read-out: growth inhibition grade

Structure (SMILES)	inhibition at 50 µg/mL [1] [%]	inhibition at 50 µg/mL [2] [%]	inhibition at 50 µg/mL [3] [%]	inhibition at 50 µg/mL [4] [%]	inhibition at 50 µg/mL [5] [%]	inhibition at 50 µg/mL [6] [%]	inhibition at 50 µg/mL [7] [%]	inhibition at 50 µg/mL [8] [%]	inhibition at 50 µg/mL [9] [%]	inhibition at 50 µg/mL [10] [%]	inhibition at 50 µg/mL [11] [%]	inhibition at 50 µg/mL [12] [%]	inhibition at 50 µg/mL [13] [%]	inhibition at 50 µg/mL [14] [%]	inhibition at 50 µg/mL [15] [%]	inhibition at 50 µg/mL [16] [%]	inhibition at 50 µg/mL [17] [%]	inhibition at 50 µg/mL [18] [%]	inhibition at 50 µg/mL [19] [%]	melting point [°C]	other results
OC1(Cn2cncn2)C(Cc2ccc(Cl)cc2)CCC12CC2 (single isomer, unassigned) [Compound I-1, 5-(4-chlorobenzyl)-4-(1H-1,2,4-triazol-1-ylmethyl)-4-spiro[2.4]heptanol]	70 to 90	70 to 90	70 to 90	70 to 90	> 90	> 90	> 90	> 90	> 90	> 90	> 90	> 90	> 90	> 90	> 90	> 90	> 90	> 90	70 to 90	85.5 to 87	inhibition at 50 µg/mL [20]: > 90%; inhibition at 50 µg/mL [21]: > 90%; inhibition at 50 µg/mL [22]: 70 to 90%; Controlling value [23]: 100%; activity compared with Compound (A) [23]: higher activity; inhibition at 50 µg/mL [24]: 70 to 90%; inhibition at 50 µg/mL [25]: > 90%; inhibition at 50 µg/mL [26]: 70 to 90%; inhibition at 50 µg/mL [27]: > 90%; inhibition at 50 µg/mL [28]: > 90%; inhibition at 50 µg/mL [29]: > 90%; inhibition at 50 µg/mL [30]: > 90%
OC1(Cn2cncn2)C(Cc2ccc(Cl)cc2)CCC12CC2 (single isomer, unassigned) [Compound I-2, 5-(4-chlorobenzyl)-4-(1H-1,2,4-triazol-1-ylmethyl)-4-spiro[2.4]heptanol]																				166 to 167	
OC1(Cn2cncn2)C(Cc2cccc(Cl)c2)CCC12CC2 (single isomer, unassigned) [Compound I-3, 5-(3-chlorobenzyl)-4-(1H-1,2,4-triazol-1-ylmethyl)-4-spiro[2.4]heptanol]	70 to 90	70 to 90	70 to 90	70 to 90	> 90	> 90	> 90	> 90	> 90	> 90	> 90	> 90	> 90	> 90	> 90	> 90	> 90	> 90	70 to 90	84.5 to 85.5	inhibition at 50 µg/mL [20]: > 90%; inhibition at 50 µg/mL [21]: > 90%; inhibition at 50 µg/mL [22]: 70 to 90%; inhibition at 50 µg/mL [24]: 70 to 90%; inhibition at 50 µg/mL [25]: > 90%; inhibition at 50 µg/mL [26]: 70 to 90%; inhibition at 50 µg/mL [27]: > 90%; inhibition at 50 µg/mL [28]: > 90%; inhibition at 50 µg/mL [29]: > 90%; inhibition at 50 µg/mL [30]: > 90%
OC1(Cn2cncn2)C(Cc2cccc(Cl)c2)CCC12CC2 (single isomer, unassigned) [Compound I-4, 5-(3-chlorobenzyl)-4-(1H-1,2,4-triazol-1-ylmethyl)-4-spiro[2.4]heptanol]																				120 to 121	
OC1(Cn2cncn2)C(Cc2ccc(F)cc2)CCC12CC2 (single isomer, unassigned) [Compound I-7, 5-(4-fluorobenzyl)-4-(1H-1,2,4-triazol-1-ylmethyl)-4-spiro[2.4]heptanol]	70 to 90	70 to 90	70 to 90	70 to 90	> 90	> 90	> 90	> 90	> 90	> 90	> 90	> 90	> 90	> 90	> 90	> 90	> 90	> 90	70 to 90	89 to 90	inhibition at 50 µg/mL [20]: > 90%; inhibition at 50 µg/mL [21]: > 90%; inhibition at 50 µg/mL [22]: 70 to 90%; inhibition at 50 µg/mL [24]: 70 to 90%; inhibition at 50 µg/mL [25]: > 90%; inhibition at 50 µg/mL [26]: 70 to 90%; inhibition at 50 µg/mL [27]: > 90%; inhibition at 50 µg/mL [28]: > 90%; inhibition at 50 µg/mL [29]: > 90%; inhibition at 50 µg/mL [30]: > 90%
OC1(Cn2cncn2)C(Cc2ccc(F)cc2)CCC12CC2 (single isomer, unassigned) [Compound I-8, 5-(4-fluorobenzyl)-4-(1H-1,2,4-triazol-1-ylmethyl)-4-spiro[2.4]heptanol]																				139 to 140	
C[C@]12C[C@H]1C[C@H](Cc1ccc(Cl)cc1)[C@@]2(O)Cn1cncn1 (stereo in doubt) [Comparative Compound (A), 3-(4-chlorobenzyl)-1-methyl-2-(1H-1,2,4-triazol-1-ylmethyl)bicyclo[3.1.0]hexan-2-ol, reference compound]																					Controlling value [23]: 54%
CC1(C)CC12CCC(Cc1ccc(Cl)cc1)C2(O)Cn1cncn1 (centres unmarked) [Compound I-101, 5-(4-chlorobenzyl)-1,1-dimethyl-4-(1H-1,2,4-triazol-1-ylmethyl)-4-spiro[2.4]heptanol]	70 to 90	70 to 90	70 to 90	70 to 90	> 90	> 90	> 90	> 90	> 90	> 90	> 90	> 90	> 90	> 90	> 90	> 90	> 90	> 90	70 to 90		inhibition at 50 µg/mL [20]: > 90%; inhibition at 50 µg/mL [21]: > 90%; inhibition at 50 µg/mL [22]: 70 to 90%; inhibition at 50 µg/mL [24]: 70 to 90%; inhibition at 50 µg/mL [25]: > 90%; inhibition at 50 µg/mL [26]: 70 to 90%; inhibition at 50 µg/mL [27]: > 90%; inhibition at 50 µg/mL [28]: > 90%; inhibition at 50 µg/mL [29]: > 90%; inhibition at 50 µg/mL [30]: > 90%
